From paper PMC11394972 (International Journal of Molecular Sciences, 2024)

Test system: MazF-mt3
Format: biochemical, Mycobacterium tuberculosis
Details: FAM-labeled 13-nt RNA substrate, 37 °C, 30 min

Molecule: MazE-mt3 α3–α4: peptide corresponding to the last two helices (α3-α4, Leu46-Trp82) of MazE-mt3; cocrystallized with MazF-mt3 (PDB 8ZWS) (LTGQIDRALESIHGTDEAEALAVANAYRVLETMDDEW)
- reduction of the cleavage of the WT MazF-mt3 enzyme (Figure 4A): 15%

B1: MazE-mt3: full-length antitoxin of the M. tb MazEF-mt3 toxin–antitoxin pair, recombinantly expressed (protein)
chain: MKTAISLPDETFDRVSRRASELGMSRSEFFTKAAQRYLHELDAQLLTGQIDRALESIHGTDEAEALAVANAYRVLETMDDEW
modifications: left off: His tag, end not stated, state not stated
notes: full-length antitoxin of the M. tb MazEF-mt3 toxin–antitoxin pair, recombinantly expressed
- suppression of the cleavage activity of MazF-mt3 (20 mM Tris-HCl pH 8.0, 150 mM NaCl, urea-PAGE, Figure S8): fully suppress
